From patent publication US8735361B2, “C1ORF59 peptides and vaccines including the same” (Oncotherapy Science, Inc., priority 2008, dated 2014)

How the values were obtained:
[1] = tested on: peptide-pulsed A24 LCL; test: IFN-gamma ELISA assay of expanded CTL lines (HLA-A*2402); format: cell-based, human; conditions: target cells pulsed with corresponding peptide compared to target cells without peptide pulse
Method: CTLs were expanded in culture using the method similar to the one described by Riddell et al. (Walter E A et al., N Engl J Med 1995 Oct. 19, 333(16): 1038-44; Riddell S R et al., Nat Med 1996 February, 2(2): 216-23). A total of 5×10^4 CTLs were suspended in 25 ml of AIM-V/5% AS medium with 2 kinds of human B-lymphoblastoid cell lines, inactivated by MMC, in the presence of 40 ng/ml of anti-CD3 monoclonal antibody (Pharmingen). One day after initiating the cultures, 120 IU/ml of IL-2 were added to the cultures. The cultures were fed with fresh AIM-V/5% AS medium containing 30 IU/ml of IL-2 on days 5, 8 and 11 (Tanaka H et al., Br J Cancer 2001 Jan. 5, 84(1): 94-9; Umano Y et al., Br J Cancer 2001 Apr. 20, 84(8): 1052-7; Uchida N et al., Clin Cancer Res 2004 Dec. 15, 10(24): 8577-86; Suda T et al., Cancer Sci 2006 May, 97(5): 411-9; Watanabe T et al., Cancer Sci 2005 August, 96(8): 498-506).
(§1) To examine specific CTL activity, interferon (IFN)-gamma enzyme-linked immunospot (ELISPOT) assay and IFN-gamma enzyme-linked immunosorbent assay (ELISA) were performed. Specifically, peptide-pulsed A24 LCL (1×10^4/well) was prepared as stimulator cells. Cultured cells in 48 wells were used as responder cells. IFN-gamma ELISPOT assay and IFN-gamma ELISA assay were performed under manufacture procedure.

[2] = tested on: peptide-pulsed A24 LCL; test: In vitro CTL induction with HLA-A*2402 restricted peptides, IFN-gamma ELISPOT assay; format: cell-based, human; conditions: CTLs from HLA-A*2402 positive donor stimulated with peptide-pulsed DCs; compared to control wells
From the text: Monocyte-derived dendritic cells (DCs) were used as antigen-presenting cells (APCs) to induce cytotoxic T lymphocyte (CTL) responses against peptides presented on human leukocyte antigen (HLA). DCs were generated in vitro as described elsewhere (Nakahara S et al., Cancer Res 2003 Jul. 15, 63(14): 4112-8). Specifically, peripheral blood mononuclear cells (PBMCs) isolated from a normal volunteer (HLA-A*2402 positive) by Ficoll-Plaque (Pharmacia) solution were separated by adherence to a plastic tissue culture dish (Becton Dickinson) so as to enrich them as the monocyte fraction. The monocyte-enriched population was cultured in the presence of 1000 U/ml of granulocyte-macrophage colony-stimulating factor (GM-CSF) (R&D System) and 1000 U/ml of interleukin (IL)-4 (R&D System) in AIM-V Medium (Invitrogen) containing 2% heat-inactivated autologous serum (AS). After 7 days of culture, the cytokine-induced DCs were pulsed with 20 micro gram/ml of each of the synthesized peptides in the presence of 3 micro gram/ml of beta 2-microglobulin for 3 hrs at 37 degrees C. in AIM-V Medium. The generated cells appeared to express DC-associated molecules, such as CD80, CD83, CD86 and HLA class II, on their cell surfaces (data not shown). These peptide-pulsed DCs were then inactivated by X-irradiated (20 Gy) and mixed at a 1:20 ratio with autologous CD8+ T cells, obtained by positive selection with CD8 Positive Isolation Kit (Dynal). These cultures were set up in 48-well plates (Corning); each well contained 1.5×10^4 peptide-pulsed DCs, 3×10^5 CD8+ T cells and 10 ng/ml of IL-7 (R&D System) in 0.5 ml of AIM-V/2% AS medium. Three days later, these cultures were supplemented with IL-2 (CHIRON) to a final concentration of 20 IU/ml. On day 7 and 14, the T cells were further stimulated with the autologous peptide-pulsed DCs. The DCs were prepared each time by the same way described above. CTL was tested against peptide-pulsed A24 LCL or T2 cells after the 3rd round of peptide stimulation on day 21 (Tanaka H et al., Br J Cancer 2001 Jan. 5, 84(1): 94-9; Umano Y et al., Br J Cancer 2001 Apr. 20, 84(8): 1052-7; Uchida N et al., Clin Cancer Res 2004 Dec. 15, 10(24): 8577-86; Suda T et al., Cancer Sci 2006 May, 97(5): 411-9; Watanabe T et al., Cancer Sci 2005 August, 96(8): 498-506)
as §1

[3] = tested on: COS7 cells transfected with C1orf59 and HLA-A*2402; test: Specific CTL activity against target cells exogenously expressing C1orf59 and HLA-A*2402; format: cell-based, African green monkey
From the text: The cDNA encoding an open reading frame of target genes or HLA-A24 was amplified by PCR. The PCR-amplified product was cloned into pCAGGS vector. The plasmids were transfected into COS7, which is the target genes and HLA-A24-null cell line, using lipofectamine 2000 (Invitrogen) according to the manufacturer's recommended procedures. After 2 days from transfection, the transfected cells were harvested with versene (Invitrogen) and used as the target cells (5×10^4 cells/well) for CTL activity assay.
The established CTL lines raised against these peptides were examined for their ability to recognize target cells that express C1orf59 and HLA-A*2402 molecule. Specific CTL activity against COS7 cells which transfected with both the full length of C1orf59 and HLA-A*2402 molecule gene (a specific model for the target cells that express C1orf59 and HLA-A*2402 gene) was tested using the CTL lines raised by corresponding peptide as the effecter cells. COS7 cells transfected with either full length of C1orf59 genes or HLA-A*2402 were prepared as control.

[4] = tested on: peptide-pulsed A24 LCL; test: IFN-gamma ELISA assay of CTL clones established by limiting dilution (HLA-A*2402); format: cell-based, human; conditions: CTL clones against target cells pulsed with peptide
Method: The dilutions were made to have 0.3, 1, and 3 CTLs/well in 96 round-bottomed micro titer plate (Nalge Nunc International). CTLs were cultured with 1×10^4 cells/well of 2 kinds of human B-lymphoblastoid cell lines, 30 ng/ml of anti-CD3 antibody, and 125 U/ml of IL-2 in a total of 150 microlitter/well of AIM-V Medium containing 5% AS. 50 microlitter/well of IL-2 were added to the medium 10 days later so to reach a final concentration of 125 U/ml IL-2. CTL activity was tested on the 14th day, and CTL clones were expanded using the same method as described above (Uchida N et al., Clin Cancer Res 2004 Dec. 15, 10(24): 8577-86; Suda T et al., Cancer Sci 2006 May, 97(5): 411-9; Watanabe T et al., Cancer Sci 2005 August, 96(8): 498-506).
as §1

Sequence: GYCTQIGIF [SEQ ID NO: 26]
- IFN-gamma production of CTL lines by ELISA [1]: potent IFN-gamma production
- Peptide specific CTL activity, IFN-gamma production by ELISPOT [2]: potent IFN-gamma production
- Specific CTL activity against control COS7 cells ([3]; COS7 transfected with either full length C1orf59 or HLA-A*2402 alone): no significant specific CTL activity
- Specific CTL activity against COS7 cells expressing both C1orf59 and HLA-A*2402 ([3]; CTLs raised by the peptide as effector cells): potent CTL activity
- IFN-gamma production of CTL clones by ELISA [4]: Potent IFN-gamma productions
